Data published in patent US10858425B2, “Pan-ELR+ CXC chemokine antibodies” (Eli Lilly and Company, priority 2013, dated 2020).
Values belong to the compound of their own block, whether it stands above or below them.

How the values were obtained:
[1] = biological target: T1, human CXCR2 (U937-huCXCR2 cells) (Homo sapiens, UniProt P25025); assay: U937-huCXCR2 FLIPR activity of human CXCL8 wild type and mutants; type: cell-based; conditions: CXCL8 variant as ligand on U937-huCXCR2 cells
T1 construct: expressed in transfected cells; host or cells: U937 monocytic cell line, retrovirally transduced
T1 sequence (P25025 1-360): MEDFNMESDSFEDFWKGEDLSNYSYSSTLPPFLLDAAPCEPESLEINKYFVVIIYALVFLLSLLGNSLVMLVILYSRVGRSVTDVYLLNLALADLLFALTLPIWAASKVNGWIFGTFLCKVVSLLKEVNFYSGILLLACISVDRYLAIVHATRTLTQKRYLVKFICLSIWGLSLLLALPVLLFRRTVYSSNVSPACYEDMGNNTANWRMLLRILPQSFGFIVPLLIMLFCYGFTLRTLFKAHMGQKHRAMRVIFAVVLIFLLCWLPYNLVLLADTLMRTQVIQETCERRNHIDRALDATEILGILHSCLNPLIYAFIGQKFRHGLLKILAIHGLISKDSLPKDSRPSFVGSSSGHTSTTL
Description: Wild type and mutant human CXCL8 are tested for biologic activity and for neutralization by Antibody 1 using the U937-huCXCR2 assay. U937-huCXCR2 is a monocytic cell line transduced with retrovirus for expression of human CXCR2. A description of the U937-huCXCR2 assay is found below under Neutralizing Assays.
CXCL8 mutants are serially diluted in Assay Buffer containing 0.2% BSA in wells of v-bottom 96-well polypropylene plates. Ligand concentrations are 3 times the final assay concentration (final assay concentrations range from 300 to 0.0051 nM). A cell plate and a ligand plate are loaded into a Fluorescent Imaging Plate Reader (FLIPR-3, Molecular Devices) programmed to transfer 50 μL of ligand to wells of the cell plate. Fluorescence is recorded at 1 second intervals for 90 seconds. The change in fluorescence [delta relative fluorescence units (DRFU), Max RFU-Min RFU] is calculated from images 10 to 90. DRFU versus log (ligand concentration) is plotted and EC50 values are determined by nonlinear regression using Graph Pad Prism. Assays are performed in triplicate over three assay plates.

[2] = test system: SKOV3-Luc ovarian cancer cells; assay: SKOV3-Luc ovarian cancer xenograft model; type: in vivo, athymic nude female mice
Description: SKOV3-Luc is a human ovary cancer cell line that expresses firefly luciferase gene. SKOV3-Luc cells are often used in vivo to establish human ovarian adenocarcinoma tumor growth.
SKOV3-Luc ovarian cancer cells were mixed 1:1 with matrigel and implanted subcutaneously in the right rear flank of athymic nude female mice at 3.0×10^6 cells per injection. Mice were randomized into 4 groups at baseline according to tumor volume after the xenografts were grown to an average tumor volume of 200 mm^3. Mice received either control IgG4 antibody (2.5 mg/kg once a week), cisplatin (2.5 mg/kg once a week), Antibody 1 (20 mg/kg once a week), or a combination of cisplatin (2.5 mg/kg once a week) and Antibody 1 (20 mg/kg once a week) by intraperitoneal injection.

U937 FLIPR activity EC50 [1]: Not Active
Compound: R6A: human CXCL8 point mutant R6A based on SEQ ID NO: 27 [Antibody R6A]

U937 FLIPR activity EC50 [1]: Not Active
Compound: I40A: human CXCL8 point mutant I40A based on SEQ ID NO: 27 [Antibody I40A]

Compound: N.N.[Cl][Pt][Cl] [Cisplatin, cisplatin]
Average Tumor Volume ([2]; Day 14): 122.65 mm^3 | Average Tumor Volume ([2]; Day 19): 190.65 mm^3 | Average Tumor Volume ([2]; Day 22): 289.15 mm^3 | Average Tumor Volume ([2]; Day 26): 484.72 mm^3 | Average Tumor Volume ([2]; Day 32): 806.31 mm^3 | Average Tumor Volume ([2]; Day 35): 923.02 mm^3 | Average Tumor Volume ([2]; Day 40): 941.42 mm^3 | Average Tumor Volume ([2]; Day 43): 1047.34 mm^3 | tumor growth inhibition ([2]; compared to isotype control, intraperitoneal, once a week): did not show statistically significant tumor growth inhibition

U937 FLIPR activity EC50 [1]: Not Active
Compound: I10A: human CXCL8 point mutant I10A based on SEQ ID NO: 27 [Antibody I10A]
